From patent US11541023B2, “Compounds and compositions for the treatment of neurodegenerative and inflammatory diseases” (SORBONNE UNIVERSITE, priority 2018, dated 2023)
Counter-ions that a name gives are not always drawn.

Experiments:
[1] = system: CG4 cell line (rat oligodendrocyte precursor cells), GFP/mCherry; assay: Cytotoxicity on GFP/mCherry oligodendrocyte line (Hoechst staining); type: cell-based; conditions: 72 h
Procedure: FIGS. 2 and 3: Evaluation of the cytotoxicity of the compounds 2 and 3 on the GFP/-mCherry oligodendrocyte line. The cell survival was evaluated by measuring the fluorescence intensity of the Hoechst staining compared with the basal control (TB). Each concentration was tested in quadruplicate. Statistics: Mann-Whitney test (p value=0.019). […] Legend—TB: basal control, T+: positive control (9-cis-retinoic acid). The line used is a CG4 cell line, said cell line being rat oligodendrocyte precursor cells (OPCs), and doubly transduced with the GFP gene under the control of the CMV promoter and the mCherry marker gene under the control of a promoter specific for differentiated and mature oligodendrocytes. The mCherry marker is expressed only at the differentiated oligodendrocyte stage and thus makes it possible to test compounds capable of inducing OPC differentiation. The cells were also stained with Hoechst in order to evaluate their viability. The cells are cultured in the proliferation medium described by Louis et al. (Louis et al., J Neurosci Res. 1992 January; 31(1):193-204) during their seeding, and then transferred into a differentiation medium (DMEM/F12, B27, N1, biotin, laminin). The cells are treated with various concentrations of inhibitor for 72 h in 96-well plates, then screened by means of an automated inverted microscope. The experimental controls used are a basal control containing only the differentiation medium and a positive control, 9-cis-retinoic acid, which is known for its effect in inducing OPC differentiation (Huang et al., Nature Neuroscience 14, 45-53 (2011)). Firstly, the cytotoxicity of the compounds is evaluated by virtue of the comparison of the intensity of the Hoechst staining for each experimental condition with respect to the basal control.

[2] = molecular target: plasmin (Homo sapiens (Human), UniProt P00747); assay: Plasmin enzymatic inhibition test (Boc-QAR-AMC / PAR4 FRET substrate); conditions: for inhibition at 10 µM: read-out: % Inhibition at 10 μM
[3] = molecular target: KLK6 (Homo sapiens (Human), UniProt Q92876); assay: KLK6 enzymatic inhibition test (fluorogenic/FRET peptide substrates); conditions: for inhibition at 10 µM: read-out: % Inhibition at 10 μM
[4] = molecular target: KLK1 (Homo sapiens (Human), UniProt P06870); assay: KLK1 enzymatic inhibition test (Boc-PFR-AMC); type: biochemical; conditions: for inhibition at 10 µM: KLK1 1.6 nM, Boc-PFR-AMC 100 μM, 15 min at 37° C., compound 10 μM; for IC50: KLK1, Boc-PFR-AMC, ni = non-inhibitor
Procedure: The molecules were tested in order to evaluate their possible inhibitory effect on the enzymatic activity of KLK1. […] The results are presented in Table 4 below; all the inhibitors are reversible.

[5] = system: primary culture of murine cortical neurons; assay: Neurocytotoxicity, XTT cell survival test; type: cell-based; conditions: for % cell survival: 48 h
Procedure: FIG. 1: Evaluation of the neurocytotoxicity of the compounds 1 (comparative), 2 and 4 (according to the invention). The percentage cell survival was determined by measuring the absorbance at 485 nm for each concentration compared with the controls treated only with complete medium (positive control) or 20% DMSO (negative control). Each concentration was tested in quadruplicate. The neurons were taken from the stage E16 embryos of Swiss females. The cells are seeded at a density of 50 000 cells/well in precoated sterile transparent 96-well plates. The cells are cultured for 48 h in DMEM medium supplemented with 10% fetal calf serum (FCS), penicillin, streptomycin, N2 and B27, at 37° C. under a humid atmosphere with 5% CO2. The cells are then placed in the presence of the compounds described above (10, 25 or 50 μM) or of the DMSO control, and then incubated for 48 h. The medium is then replaced with 100 μl of XTT (0.3 mg·ml^−1) in order to carry out the cell viability test. […] The activity of the mitochondria is determined by measuring the absorbance at 485 nm. The percentage cell survival is calculated by the ratio of the absorbance in the presence of the inhibitor relative to the control condition (DMSO). The molecule is considered to be cytotoxic when the percentage cell survival is less than 80%.

[6] = plasmin, FRET substrate PAR4, ni = non-inhibitor

Sequence of plasmin (P00747 581-810 limits assumed): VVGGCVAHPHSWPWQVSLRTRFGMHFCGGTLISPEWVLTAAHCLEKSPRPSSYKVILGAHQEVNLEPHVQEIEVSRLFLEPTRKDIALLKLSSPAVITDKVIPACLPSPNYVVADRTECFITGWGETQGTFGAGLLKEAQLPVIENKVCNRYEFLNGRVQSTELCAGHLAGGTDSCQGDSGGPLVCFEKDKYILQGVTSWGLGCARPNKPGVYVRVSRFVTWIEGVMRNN
Sequence of plasmin (P00747 97-580 partner limits assumed): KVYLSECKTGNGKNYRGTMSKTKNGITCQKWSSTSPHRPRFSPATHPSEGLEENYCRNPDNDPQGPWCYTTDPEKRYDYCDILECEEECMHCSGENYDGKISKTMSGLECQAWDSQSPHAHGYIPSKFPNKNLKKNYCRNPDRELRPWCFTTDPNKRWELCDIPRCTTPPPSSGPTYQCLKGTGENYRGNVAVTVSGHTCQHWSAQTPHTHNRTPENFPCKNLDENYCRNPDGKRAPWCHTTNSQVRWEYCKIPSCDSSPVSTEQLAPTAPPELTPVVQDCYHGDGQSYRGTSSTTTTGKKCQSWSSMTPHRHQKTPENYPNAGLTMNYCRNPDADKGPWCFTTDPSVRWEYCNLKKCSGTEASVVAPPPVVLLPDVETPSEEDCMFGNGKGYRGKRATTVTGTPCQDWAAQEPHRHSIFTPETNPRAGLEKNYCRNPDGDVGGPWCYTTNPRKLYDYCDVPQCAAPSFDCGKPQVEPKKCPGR
Sequence of KLK1 (P06870 25-262): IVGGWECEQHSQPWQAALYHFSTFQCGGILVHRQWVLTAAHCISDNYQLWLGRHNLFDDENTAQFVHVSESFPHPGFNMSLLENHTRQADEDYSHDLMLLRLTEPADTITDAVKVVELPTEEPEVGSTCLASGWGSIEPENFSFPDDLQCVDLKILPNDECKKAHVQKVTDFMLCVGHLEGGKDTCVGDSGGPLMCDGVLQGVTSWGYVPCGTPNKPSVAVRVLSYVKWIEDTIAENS

SMILES | IC50 [2, 6] | inhibition at 10 µM [2] | inhibition at 10 µM [3] | inhibition at 10 µM [4] | IC50 [4] | % cell survival ([5]; 10 μM) | % cell survival ([5]; 25 μM) | also measured
CC(C)(C)c1ccc(O)c(C(=O)Nc2ccc(CN)cc2)c1.Cl [Compound 1, N-(4-(Aminomethyl)phenyl)-5-tert-butyl-2-hydroxybenzamide hydrochloride, reference compound] | ni | 39.3% | 51% | 32.8% | ni | > 80% |  | Concentrations at which toxicity is exhibited ([1]; oligodendrocyte line): above 10 μM; Inhibition type ([2]; plasmin, Boc-QAR-AMC, competitive/noncompetitive by Dixon method): Competitive; IC50 ([2]; plasmin, substrate Boc-QAR-AMC): 17.1 µM; Ki ([2]; plasmin, substrate Boc-QAR-AMC, Dixon method): 14.4 µM; Inhibition type (reversibility) ([2]; plasmin, dilution method): reversible; Inhibition type ([3]; KLK6, Boc-QAR-AMC, competitive/noncompetitive by Dixon method): Competitive; IC50 ([3]; KLK6, FRET substrate MBP3): 39.8 µM; IC50 ([3]; KLK6, FRET substrate PAR2): 21.7 µM; IC50 ([3]; KLK6, substrate Boc-QAR-AMC): 9.06 µM; Ki ([3]; KLK6, substrate Boc-QAR-AMC, Dixon method): 4.44 µM; Inhibition type (reversibility) ([3]; KLK6, dilution method): reversible; Neurocytotoxicity ([5]; 10, 25 and 50 μM): dose-dependent effect
Cl.NCc1ccc(NC(=O)c2ccc3ccccc3c2O)cc1 [Compound 2, N-(4-(Aminomethyl)phenyl)-1-hydroxy-2-naphthamide hydrochloride] |  | 97.4% | 77.2% | 47.7% | ni | > 80% | > 90% | Cytotoxicity (Hoechst staining relative to basal control) ([1]; all concentrations tested): not cytotoxic; % cell survival ([5]; second statement printed as 25 μM (presumably 50 μM)): > 90%
NCc1ccc(NC(=O)c2cc3ccccc3cc2O)cc1 [Compound 3, N-(4-(Aminomethyl)phenyl)-3-hydroxy-2-naphthamide hydrochloride] |  | 81% |  | 77% |  |  |  | 
Cc1ccc(C(=O)Nc2ccc(CN)cc2)c(O)c1.Cl [Compound 4, N-(4-(Aminomethyl)phenyl)-4-methyl-2-hydroxybenzamide hydrochloride] | ni | 54.3% | 68.8% | 61.7% |  | > 80% | > 90% | Cytotoxicity ([1]; between 2 and 12 μM): does not exhibit any toxicity
COc1ccc2c(O)c(C(=O)Nc3ccc(CN)cc3)ccc2c1 [Compound 5, N-(4-(Aminomethyl)phenyl)-6-methoxy-1-hydroxy-2-naphthamide hydrochloride] |  | 100% |  | 46.5% |  |  |  | 
CC(C)c1ccc(C(=O)Nc2ccc(CN)cc2)c(O)c1 [Compound 6, N-(4-(Aminomethyl)phenyl)-4-isopropyl-2-hydroxybenzamide hydrochloride] |  | 70.2% | 84.7% | 57.7% |  |  |  | 
